Results as given in PubChem BioAssay (NCI).
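1) Cells in 96-well plates. 2) Compound, 48 h, 5 concentrations. 3) Linear interpolation between surrounding doses. 4) Unreached endpoint = highest concentration. Abbreviation: GI50, concentration required for 50% inhibition of growth. TGI: total growth inhibition.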

test system: MDA-MB-468 breast; experiment: NCI-60 cell line screen, 48 h

Question: What does the source list for `C=C1C(=O)O[C@H]2[C@H]1CC/C(COC(=O)/C=C\C(=O)NCc1ccc(Cn3c(=O)sn(CCCI)c3=O)cc1)=C\CC[C@@]1(C)O[C@@H]21`?
Answer: GI50: 519 nM; TGI: 1190 nM

Question: How did the GI50 turn out when `CCCCCCCC(=O)SCC/C=C/[C@@H]1CC(=O)NCc2cccc(n2)CN(Cc2ccc3ccccc3c2)CC(=O)N[C@@H](C(C)C)C(=O)O1` was run?
Answer: 33300 nM

Question: And the TGI?
Answer: > 100000 nM

Question: With `N#Cc1c(Br)n(C2OC(CO)C(O)C2O)c2ncn3ccnc3c12` (stereo not drawn) as the molecule, how does the GI50 read?
Answer: 35200 nM

Question: What about the TGI of the same molecule?
Answer: > 100000 nM

Question: Which GI50 does the source give for `Cc1ccc(NC2=N[C@]34CC(=O)CC[C@]3(C)[C@H]3CC[C@]5(C)C(=O)CC[C@H]5[C@@H]3C[C@@H]4S2)c(C)c1` here?
Answer: 1930 nM

Question: And the TGI?
Answer: 3930 nM

Question: Which results are given for `C=C1C(=O)O[C@H]2[C@H]1CC/C(COC(=O)CCCC(=O)OC/C1=C/CC[C@@]3(C)O[C@H]3[C@H]3OC(=O)C(=C)[C@@H]3CC1)=C\CC[C@@]1(C)O[C@@H]21`?
Answer: GI50: 1510 nM; TGI: 5300 nM

Question: Which results are given for `CN(C)CCCn1c2c(c3ccc(-c4ccn[nH]4)cc3c1=O)C(=O)c1ccccc1-2`?
Answer: GI50: 7840 nM; TGI: 24000 nM

Question: For `O=c1ccc2nc(C(F)(F)F)nn(-c3ccccc3)c-2c1`, which GI50 is on record?
Answer: 1060 nM

Question: What about the TGI of the same molecule?
Answer: 2980 nM

Question: How did the GI50 turn out when `O=C(Nc1cccc(Cl)c1)Nc1nccs1` was run?
Answer: 8830 nM

Question: What about the TGI of the same molecule?
Answer: 89500 nM

Question: `Oc1cccc(-c2nc(-c3n[nH]c(=S)n3-c3ccccc3)cc3c2[nH]c2ccccc23)c1` was tested. Which GI50 did it give?
Answer: 2540 nM

Question: And the TGI?
Answer: 7410 nM

Question: What does the source list for `CC(C)C[C@H](NC(=O)Cn1ccc(Nc2ccccc2)cc1=O)B(O)O`?
Answer: GI50: 423 nM; TGI: 5880 nM

Question: How did the GI50 turn out when `O=CN/N=C/c1ccc(Cl)c([N+](=O)[O-])c1` was run?
Answer: 127 nM

Question: And the TGI?
Answer: 4260 nM

Question: With `ClCCn1cnc2c(SCc3ccccc3Cl)ncnc21` as the molecule, how does the GI50 read?
Answer: 9760 nM

Question: What about the TGI of the same molecule?
Answer: 67600 nM

Question: Which results are given for `Cc1ccc(Cl)cc1-c1nc(N)nc(Nc2ccc(Br)cc2)n1`?
Answer: GI50: 175 nM; TGI: 614 nM

Question: Which results are given for `Cc1cc(N(CCNc2ccnc3cc(Cl)ccc23)Cc2cccs2)nc(Cl)n1`?
Answer: GI50: 1220 nM; TGI: 2700 nM

Question: With `CCCN(CCC)c1ccc(CO)c(Cl)c1` as the molecule, how does the GI50 read?
Answer: 46.9 nM

Question: And the TGI?
Answer: 199 nM

Question: For `O=C(N/N=C/c1c(Cl)cccc1Cl)c1cccnc1Nc1cccc(C(F)(F)F)c1`, which GI50 is on record?
Answer: 951 nM

Question: And the TGI?
Answer: 9270 nM

Question: For `CCOC(=O)/C=C1/SC(N2CCCCC2)C(=O)N1CC` (stereo not drawn), which GI50 is on record?
Answer: > 100000 nM

Question: And the TGI?
Answer: > 100000 nM

Question: What does the source list for `CCCC(=O)NC(c1ccc(N(CC)CC)cc1)c1cc(C)c2cccnc2c1O` (stereo not drawn)?
Answer: GI50: 386 nM; TGI: 1960 nM

Question: Which TGI does the source give for `COc1ccc2c(c1)NC(=O)CN2c1nc(NC2CC2)nc2ccccc12` here?
Answer: 3750 nM

Question: How did the GI50 turn out when `C[n+]1c2ccccc2c(Nc2ccc(N3CCCCC3)cc2)c2[nH]c3ccccc3c21` was run?
Answer: 153 nM

Question: And the TGI?
Answer: 401 nM

Question: How did the GI50 turn out when `O=C(Nc1ccc(-c2nc(-c3cccc(O)c3)c(-c3ccnc(Br)c3)[nH]2)cc1)c1ccccc1` was run?
Answer: 1910 nM

Question: And the TGI?
Answer: 4740 nM

Question: For `N#CC1=C(N)Oc2c(ccc3ccccc23)C1c1cccs1` (stereo not drawn), which GI50 is on record?
Answer: 37.5 nM

Question: What about the TGI of the same molecule?
Answer: 13700 nM

Question: Which GI50 does the source give for `O=S(=O)(Nc1ccc(Cl)cc1)c1ccc(-c2cnc(C3CC3)o2)cc1` here?
Answer: 368 nM

Question: What about the TGI of the same molecule?
Answer: 6010 nM

Question: How did the GI50 turn out when `Cc1nn(CCO)c(C)c1N=[N+]([O-])c1c(C)nn(CCO)c1C` was run?
Answer: 2840 nM

Question: What about the TGI of the same molecule?
Answer: 15800 nM

Question: How did the GI50 turn out when `OCc1ccc(N(Cc2ccc(F)cc2)CC2CC2)cc1Cl` was run?
Answer: 18.9 nM

Question: And the TGI?
Answer: 68.6 nM

Question: What does the source list for `O=C(CCCCN1CCOCC1)Nc1ccc(Cn2nnc3c2C(=O)c2nnn(Cc4ccc(NC(=O)CCCCN5CCOCC5)cc4)c2C3=O)cc1`?
Answer: GI50: 103 nM; TGI: 261 nM

Question: With `O=C1N[C@@H]2[C@@H](O)[C@@H](O)[C@H](O)C[C@H]2c2cc3c(c(O)c21)OCO3` as the molecule, how does the GI50 read?
Answer: 58 nM

Question: And the TGI?
Answer: 298 nM

Question: Which GI50 does the source give for `CC1(C)CC[C@]2(C(N)=O)CC[C@]3(C)C(=CC[C@@H]4[C@@]5(C)C/C(=C/c6cccnc6)C(=O)C(C)(C)[C@@H]5CC[C@]43C)[C@@H]2C1` here?
Answer: 3200 nM

Question: What about the TGI of the same molecule?
Answer: > 100000 nM

Question: For `C[CH2][Pb]([CH2]C)([CH2]C)[O]C(=O)COc1ccccc1`, which GI50 is on record?
Answer: 230 nM

Question: What about the TGI of the same molecule?
Answer: 659 nM

Question: Which results are given for `C(=C1c2ccccc2-c2ccccc21)c1ccncc1`?
Answer: GI50: 2280 nM; TGI: 6640 nM

Question: With `C=C1C(=O)O[C@H]2[C@H]1CC/C(COC(=O)CCSSCCC(=O)OC/C1=C/CC[C@@]3(C)O[C@H]3[C@H]3OC(=O)C(=C)[C@@H]3CC1)=C\CC[C@@]1(C)O[C@@H]21` as the molecule, how does the GI50 read?
Answer: 543 nM

Question: What about the TGI of the same molecule?
Answer: 2280 nM

Question: Which GI50 does the source give for `CCOC(=O)c1nnn(-c2no[n+]([O-])c2-c2ccc(OC)cc2)c1COc1cccc2cccnc12` here?
Answer: 2610 nM

Question: And the TGI?
Answer: 7990 nM

Question: How did the GI50 turn out when `C[C@]12CCC(=O)CC1CC[C@@H]1C2CC[C@@]2(C)C1CC[C@@H]2OC(=O)CC[Se][Se]CCC(=O)O[C@H]1CCC2[C@@H]3CCC4CC(=O)CC[C@]4(C)C3CC[C@@]21C` (stereo partly drawn) was run?
Answer: 2100 nM

Question: What about the TGI of the same molecule?
Answer: 5060 nM

Question: How did the GI50 turn out when `N#Cc1c(-c2ccc(Cl)cc2)nc(SCc2ccccc2)nc1N1CCNCC1` was run?
Answer: 1710 nM

Question: What about the TGI of the same molecule?
Answer: 3460 nM

Question: What does the source list for `Cc1cc(Oc2ccccc2)ccc1Nc1ncnc2ccc(-c3cnc(Cl)c(NS(C)(=O)=O)c3)cc12`?
Answer: GI50: 1040 nM; TGI: 3330 nM

Question: Which results are given for `COc1cc(-c2csc(NC(=O)Nc3ccc(Cl)c(C(F)(F)F)c3)n2)cc(OC)c1OC`?
Answer: GI50: 775 nM; TGI: 3850 nM

Question: With `C=CC(=O)N1C[C@H](COc2nc(Nc3cnn(C)c3)nc3[nH]cc(Cl)c23)[C@@H](OC)C1` as the molecule, how does the GI50 read?
Answer: 445 nM

Question: What about the TGI of the same molecule?
Answer: 2590 nM

Question: For `CN(C)CCCNCc1ccc(-c2ccc(F)c(Cl)c2)o1`, which GI50 is on record?
Answer: 8920 nM

Question: And the TGI?
Answer: 23400 nM

Question: Which results are given for `CC(=O)N1CCC(Nc2cc(C(=O)NC[C@H](O)CN3CCc4ccccc4C3)ncn2)CC1`?
Answer: GI50: > 100000 nM; TGI: > 100000 nM

Question: Which results are given for `O=C(Nc1ccc([As]=[As]c2ccc(NC(=O)c3ccccc3)cc2)cc1)c1ccccc1` (stereo not drawn)?
Answer: GI50: 152 nM; TGI: 324 nM

Question: Which GI50 does the source give for `Cc1cc(Nc2ccc3c(c2)OCO3)c2cc3c(cc2n1)OCO3` here?
Answer: 519 nM

Question: And the TGI?
Answer: 15000 nM

Question: Which results are given for `O=Cc1cn(Cc2ccc(Cl)cc2)c2ccccc12`?
Answer: GI50: 22 nM; TGI: 80.1 nM
